Patent publication US12503455B2, “Nucleic acid-binding photoprobes and uses thereof” (Arrakis Therapeutics, Inc., priority 2017, dated 2025)

What was measured:
Assay type in all cases: binding
Aptamer 21 [1] = assay: LC-MS analysis of cross-linked RNA
Experimental: Folded RNA (1.33 μM) was incubated with or without the photoaffinity probe (20 μM) in total 100 μL of buffer (20 mM TrisHCl pH 8, 100 mM KCl, 3 mM MgCl2) with 2% DMSO for 30 min at 37° C. to allow binding to come to equilibrium. The sample was then irradiated with long wave UV light (˜365 nm) for 30 min in a UV crosslinker (Fisher Scientific).
The RNA was then precipitated by adding 10 μL of 3 M sodium acetate pH 5 and 275 μL ethanol, cooling to −80° C. for 1 h, and then centrifuging at 20,500×g at 4° C. for 30 min. The RNA pellet was washed with 500 μL of 70% ethanol, air dried for 5 min, and then resuspended in 120 μL of water.
50 μL of RNA sample was injected onto Clarity 2.6 μm Oligo X-T column (50*2.1 mm, 60° C.), and the gradient and flowrate were as follows: 95% A/5% B to 75% A/25% B over 5 min, flowrate: 400 μL/min; 75% A/25% B to 30% A/70% B over 1 min, flowrate: 400 μL/min; 100% D over 1 min, flowrate: 500 μL/min; 95% A/5% B over 2 min, flowrate: 500 μL/min (A: 1% HFIPA (hexafluoroisopropyl alcohol), 0.1% DIEA (diisopropylethylamine), 1 μM EDTA (ethylenediamine tetraacetic acid) in H2O; B: 0.075% HFIPA, 0.0375% DIEA, 1 μM EDTA in 65/35 MeCN/H2O; D: 40/40/20% MeOH/MeCN/H2O); The LCMS instrument was a Thermo Finnigan LTQ, and ProMass deconvolution software coupled with Xcaliber were used for all data processing.

Aptamer 21 [2] = assay: Reverse transcriptase pausing (drop-off) gel assay of photo-crosslinking to Aptamer 21
Experimental: A solution of RNA at 2 to 5 μM in nuclease-free water was heated to 95° C. for 3 min and then cooled on ice for 2 min. This solution was diluted with ½ volume of 3×RNA folding buffer (60 mM TrisHCl pH 8, 300 mM KCl, 9 mM MgCl2) and incubated at 37° C. for 20 min. Folding was carried out immediately before use of the RNA in each experiment. In cases where a mixture of RNA molecules was used in vitro the RNAs were folded separately and then combined prior to the probing experiment.
Folded RNA (1 μM) was incubated with the photoaffinity probe (10 μM) in total 25 μL of buffer (20 mM TrisHCl pH 8, 100 mM KCl, 3 mM MgCl2) with 2.5% DMSO for 30 min at 37° C. to allow binding to come to equilibrium. The sample was then irradiated with long wave UV light (˜365 nm) for 30 min in a UV crosslinker (Fisher Scientific).
A 3.75 μL aliquot of 10 μM reverse transcription primer was added to the cross-linked RNA sample, which was then incubated for 5 min at 65° C. and then cooled on ice. The sample was then diluted to a final volume of 60 μL and final buffer concentration of 1× Protoscript-II buffer (New England Biolabs), 0.5 mM dNTPs, 10 mM DTT, 0.4 U/μL RNase Inhibitor (New England Biolabs), and 10 U/μL Protoscript-II (New England Biolabs). The reaction was incubated at 45° C. for 2 h, 65° C. for 20 min, and then 4° C.
The RNA was hydrolyzed by the addition of 4.8 μL of 2.5 M NaOH and heating at 95° C. for 5 min. The reaction was quenched by the addition of 0.9 μL of acetic acid. The cDNA was precipitated by the addition of 6.6 μL of 3 M sodium acetate pH 5 and 181 μL ethanol, cooling to −80° C. for 1 h, and then centrifuging at 20,500×g at 4° C. for 30 min. The cDNA pellet was washed twice with 500 μL of 70% ethanol and then air dried for 5 min.
The cDNA pellet was resuspended in 12 μL of 1×TBE-urea sample loading buffer (Bio-Rad) and heated to 95° C. for 5 min. The sample was then run on a pre-cast 8.6×6.7 cm TBE-urea 10% PAGE gel (Bio-Rad) at 120 V until the lower bromophenol blue dye reached the bottom of the gel. The gel was stained with 1×SYBR-gold (Invitrogen) in 1×TBE buffer at room temperature for 20 min covered from light. The gel fluorescence was imaged on an Azure c600 instrument.

Aptamer 21-E = assay: Photo-crosslinking of ARK-547 with negative control Aptamer 21-E
Experimental: A 9.5 μL sample of folded RNA (2.6 μM) in buffer (20 mM TrisHCl pH 8, 100 mM KCl, 3 mM MgCl2) was added to a 0.5 μL aliquot of 1 mM ARK-547 in DMSO. The reaction was incubated for 10 min at 37° C., irradiated with long wave UV light (˜365 nm) for 30 min in a UV crosslinker (Fisher Scientific), and then kept on ice.
The samples of cross-linked RNA were diluted to a final volume of 20 μL and final reaction conditions of 1×T4 RNA ligase buffer (New England Biolabs), 5 U/μL T4 RNA ligase 2, truncated KQ (New England Biolabs), 16.5% PEG-8000, and 0.5 μM universal miRNA cloning linker (New England Biolabs). The reaction was incubated in a thermal cycler for 2.5 h cycling between 5 min at 16° C. and 3 min at 25° C. The RNA was then purified using Agencourt AMPure XP beads (Beckman Coulter) using the standard protocol from the manufacturer. […]
To remove excess primer, the sample was mixed with 4.5 μL of ExoSAP-IT, incubated at 37° C. for 15 min, and then quenched with 1 μL of 0.5 M EDTA pH 8. […] The concentration was determined by absorbance at 260 nm. […]
The concentrations of different PCR products were measured using the Denovix dsDNA fluorescence quantitation kit (Denovix) and multiplexed at equal concentrations with a 20% PhiX spike-in. Sequencing was performed on an Illumina MiSeq with 150 bp paired-end reads using the standard manufacturer protocol.

Aptamer 21 [3] = assay: Capture of Aptamer 21 with click-biotinylated probes; settings: Aptamer 21 or Aptamer 21-E
Experimental: A 50 μL sample of 1 μM folded Aptamer 21 or Aptamer 21-E solution in folding buffer (20 mM TrisHCl pH 8, 100 mM KCl, 3 mM MgCl2) was added to a 0.5 μL aliquot of 0.5 mM ARK-729, ARK-2058, ARK-816, or ARK-2059 in DMSO or a DMSO-only control. The solution was incubated at 37° C. for 1 h and then irradiated with long wave UV light (˜365 nm) for 30 min in a UV crosslinker (Fisher Scientific). To this solution was added 0.5 μL of 10 mM DBCO-biotin (Click Chemistry Tools, cat. #A105) and 2 μL of 0.5 M EDTA pH 8 and then the solution was incubated at 65° C. for 2 h. The RNA was ethanol precipitated by adding 35 μL of water, 2 uL of 5 mg/mL glycogen, 10 μL 3 M NaOAc pH 5, and 250 μL ethanol, incubating at −80° C. for 1 h, centrifuging at 20000×g for 30 min, washing the pellet twice with 500 μL of 70% ethanol, and then air drying the pellet.
The RNA pellet was redissolved in 50 μL of 1× bind/wash buffer (20 mM TrisHCl pH 7, 100 mM KCl, 0.1% Tween-20). A 50 μL aliquot of MyOne Streptavidin C1 Dynabead slurry (Thermo) was captured on a magnet, washed twice with 50 μL of 1× bind/wash buffer, and then resuspended in 50 μL of the crosslinked RNA sample. The bead suspension was rotated at room temperature for 30 min and then washed twice with 100 μL of 1× bind/wash solution. […]

Row | SMILES | covalent modification of the RNA by LC-MS (Aptamer 21 [1]) | cross-linking with Apt21 RNA (RT pausing) (Aptamer 21 [2]; 1 uM RNA, 10 uM probe (9 uM PreQ1 probe), UV ~360 nm) | shortened sequences produced in PEARL-seq reverse transcriptase pausing gel assay (Aptamer 21 [2]; FIG. 52) | binding to negative control Aptamer 21-E (Aptamer 21-E) | photoadduct with Aptamer 21-E (Aptamer 21-E) | RT pausing peaks after click-biotinylation and avidin bead enrichment (Aptamer 21 [3])
1 | COC(=O)C1=C(COCc2cn(CCOCCOCCNC(=O)CCC3(C)N=N3)nn2)NC(c2ccncc2)=NC1c1ccc(F)cc1Cl (stereo not drawn) [ARK-547] | 5% | specific and UV-dependent cross-linking | shortened sequences of particular lengths | does not bind | no photoadduct | –
2 | COC(=O)C1=C(COCc2cn(CCOCCOCCNC(=O)c3cc(CN=[N+]=[N-])cc(N=[N+]=[N-])c3)nn2)NC(c2ccncc2)=NC1c1ccc(F)cc1Cl (stereo not drawn) [ARK-729] | – | – | – | – | – | RT pausing peaks specific to Aptamer 21
